Earlier results on five molecules are cited in US8148152B2, “Method for the preparation of embryoid bodies (EBs) and uses thereof” (Axiogenesis AG, priority 2003, dated 2012).

For data set [1], the system named is ES cell-derived cardiomyocytes. Particulars: test compounds with known cardiotoxic potential; added on day 14, effect on fluorescent areas during 72 hours; data only in FIG. 6.
The subject of data set [2] is EBs from mouse embryonic stem cells (clone D3, pαMHC-GFP). The conditions noted are these: test compounds with known embryotoxic potential from ECVAM list; 10^-8 to 10^-5 M; fluorescence on day 14 as percent of control (0.1% DMSO); data only in FIG. 5.

As to `C[C@@H]1C[C@H]2[C@@H]3CCC4=CC(=O)C=C[C@]4(C)[C@@]3(F)[C@@H](O)C[C@]2(C)[C@@]1(O)C(=O)CO` [dexamethasone], the “cardiotoxic potential (classification of test compound)” value in data set [1] was “non cardiotoxic”.
Take `COC(=O)c1ccccc1C(=O)OC` [dimethylphtalate]: the “embryotoxic potential (classification of test compound)” value (“embryotoxic potential” below) in data set [2] is given as “non-embryotoxic”.
With `COc1cccc2c1C(=O)c1c(O)c3c(c(O)c1C2=O)C[C@@](O)(C(=O)CO)C[C@@H]3O[C@H]1C[C@H](N)[C@H](O)[C@H](C)O1` [doxorubicine], in data set [1], the “cardiotoxic potential (classification of test compound)” value is “cardiotoxic”.
`CN(Cc1cnc2nc(N)nc(N)c2n1)c1ccc(C(=O)N[C@@H](CCC(=O)O)C(=O)O)cc1` [methotrexate]: in data set [2], the “embryotoxic potential” value is given as “strong embryotoxic”.
For `CCCC(CCC)C(=O)O` [valproic acid], the “embryotoxic potential” value in data set [2] is recorded as “weak embryotoxic”.
